Tests used:
[1] = molecular target: T1, Ba/F3 Axl cells (Homo sapiens, UniProt P30530); test: Ba/F3 Axl cell proliferation, CellTiter-Glo Luminescent Cell Viability Assay; format: cell-based; settings: read-out: IC50 (nM) against Ba/F3 Axl cells, 100 ng/mL rhGas6, 72 h incubation
T1 sequence (P30530 1-894): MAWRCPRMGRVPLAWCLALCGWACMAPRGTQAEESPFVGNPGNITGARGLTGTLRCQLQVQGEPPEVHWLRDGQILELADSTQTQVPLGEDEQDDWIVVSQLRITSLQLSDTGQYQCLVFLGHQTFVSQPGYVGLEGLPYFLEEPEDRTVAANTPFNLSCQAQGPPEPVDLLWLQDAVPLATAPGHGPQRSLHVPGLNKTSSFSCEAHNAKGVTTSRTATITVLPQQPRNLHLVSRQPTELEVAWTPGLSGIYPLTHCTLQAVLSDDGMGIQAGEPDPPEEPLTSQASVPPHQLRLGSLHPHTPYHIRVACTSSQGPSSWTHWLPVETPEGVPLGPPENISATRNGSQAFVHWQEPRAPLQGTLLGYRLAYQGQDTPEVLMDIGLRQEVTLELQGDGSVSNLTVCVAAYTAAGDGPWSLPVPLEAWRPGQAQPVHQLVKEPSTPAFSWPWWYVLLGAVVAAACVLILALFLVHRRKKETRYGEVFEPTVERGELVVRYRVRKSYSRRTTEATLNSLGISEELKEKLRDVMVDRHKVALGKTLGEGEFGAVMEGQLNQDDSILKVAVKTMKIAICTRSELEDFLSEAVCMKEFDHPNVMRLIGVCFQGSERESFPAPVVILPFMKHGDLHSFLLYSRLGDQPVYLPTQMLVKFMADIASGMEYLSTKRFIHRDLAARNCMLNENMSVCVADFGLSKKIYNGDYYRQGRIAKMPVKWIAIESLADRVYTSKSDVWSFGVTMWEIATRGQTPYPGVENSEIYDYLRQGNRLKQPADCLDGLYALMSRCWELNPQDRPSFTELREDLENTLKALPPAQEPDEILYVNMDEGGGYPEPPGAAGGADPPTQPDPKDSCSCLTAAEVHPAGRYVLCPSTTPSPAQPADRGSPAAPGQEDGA
Method: Test method: the inhibitory activity of the compounds against Ba/F3 Axl cell proliferation was evaluated using CellTiter-Glo® Luminescent Cell Viability Assay Kit (Promega).
Test procedures: when thawing Ba/F3 Axl cells, the cell cryopreservation tube was shaken rapidly in a water bath at 37° C. to thaw the cells in 1 min. The cell suspension after thawing was mixed with RPMI1640 culture medium containing 10% FBS and centrifuged for 5 min at 1000 rpm, and the supernatant was discarded. The cell pellet was suspended in 5 mL of complete culture medium. […] Cell passage was performed at a cell density of 2×10^6 viable cells/mL. When the cells were passaged, the original cell suspension was directly made uniform by pipetting. 1/10 (namely 0.5 mL) of the cell suspension was kept, added with 4.5 mL of new complete culture medium and then made uniform by pipetting. The cell culture flask was then placed in a cell incubator for further culturing. Cell plating was performed when the cell confluence reached 2×10^6 viable cells/mL again. With reference to the method for cell passage, 1/10 (namely 0.5 mL) of the cell suspension was kept for further culturing when the cells were plated, and the remaining cell suspension was placed in a 15 mL centrifuge tube. The supernatant was discarded after centrifugation, and 5 mL of complete culture medium was used to resuspend the cells. […] A control group that contains no cell or compound but only complete culture medium and a control group that contains no compound but cells were set. The cell plates were incubated overnight in a cell incubator. […] The cell plates were then incubated in the cell incubator for 72 h. […] The cell plate was left to stand at room temperature for 20 min to stabilize luminescence signals, and the luminescence value of each well was scanned by a Spectramax M3 multi-functional microplate reader (Molecular Devices) at full wavelength.
Test samples: example compounds of the present invention and bemcentinib (positive control compound).
Data analysis: cell viability was calculated for compounds at various concentrations using the following formula:
Cell viability(%)=(Lumtest compound−Lumculture solution control)/(Lumcell control−Lumculture solution control)×100%,
where Lum refers to the luminescence value of each well of the test compound plate read by the multi-functional microplate reader.
The data were analyzed using GraphPad Prism 7.0 software, fitted with nonlinear S-curve regression to give dose-response curves, and IC50 values were calculated therefrom.

[2] = molecular target: T2, tyrosine kinase Tyro3 (Homo sapiens, UniProt Q06418); test: HTRF assay, inhibitory activity against tyrosine kinase Tyro3; format: biochemical; settings: ATP at Km (50 μM), two duplicate wells
T2 construct: purchased Carna 08-109
T2 sequence (Q06418 453-890 limits assumed): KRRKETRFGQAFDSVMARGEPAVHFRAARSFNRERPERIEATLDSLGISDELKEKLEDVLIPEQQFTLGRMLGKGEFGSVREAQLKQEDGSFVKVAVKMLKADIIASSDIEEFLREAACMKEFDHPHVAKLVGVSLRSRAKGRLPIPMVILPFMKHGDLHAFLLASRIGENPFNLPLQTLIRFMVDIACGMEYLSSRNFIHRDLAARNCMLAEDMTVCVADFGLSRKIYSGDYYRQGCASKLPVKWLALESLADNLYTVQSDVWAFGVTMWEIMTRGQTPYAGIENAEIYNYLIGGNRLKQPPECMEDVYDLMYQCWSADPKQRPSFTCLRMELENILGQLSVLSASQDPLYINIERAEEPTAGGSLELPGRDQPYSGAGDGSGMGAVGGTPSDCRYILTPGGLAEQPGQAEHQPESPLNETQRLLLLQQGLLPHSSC
Method: (§1) Test Example 2: Evaluation of Inhibitory Activity (IC50) of Compounds disclosed herein against Tyrosine Kinases Mer and Tyro3
(§2) In this test, HTRF method was used to test the inhibitory activity of compounds when ATP concentrations correspond to the Km of the kinases. The control substance was RXDX-106. The concentration of test compound was 3-fold diluted from an initial concentration of 10 μM, and two duplicate wells were set.
(§3) Kinase Mer (Carna, Cat. No. 08-108, Lot. No. 14CBS-0421H); Tyro3 (Carna, Cat. No. 08-109, Lot. No. 08CBS-1186H); HTRF kinase-TK kit (Cisbio, Cat. No. 62TK0PEC), the kit comprising: biotin-TK substrate lyophilized powder (Cisbio, Cat. No. 61TK0BLC, Lot. No. 07A), streptavidin-XL665 (Cisbio, Cat. No. 610SAXLG, Lot. No. 126A), TK antibody-cryptate (Cisbio, Cat. No. 610SAXLG, Lot. No. 04A), and detection buffer (including EDTA) (Cisbio, Cat. No. 62TK0PEC, Lot. No. 12A); ATP (Sigma, Cat. No. A7699-5G, CAS No. 34369-07-8, Lot. No. SLBQ6014V); DMSO (Sigma, Cat. No. D5879-1L, Lot. No. SHBH9944); HEPES (Sigma, Cat. No. V900477-500G, CAS No. 7365-45-9, Lot. No. WXBC4716V); MgCl2 (Sigma, Cat. No. 208337-1KG, Lot. No. MKBX9508V); EGTA (Sigma, Cat. No. E3889-100g, CAS 67-42-5, […], Lot. No. SLBG8546V); NP-40 (Beijing Dingguo, Cat. No. DH218, Lot. No. 36R00160); DTT (Sigma, Cat. No. D0632-25g, CAS No. 3483-12-3, Lot. No. SLBF3964V); compound plate (Labcyte, Cat. No. LP0200, Lot. No. 0006386836); assay plate (Greiner, Cat. No. 784075, Lot. No. E16123HM); control substance RXDX-106 (prepared according to the method disclosed in patent WO2013074633).
(§4) 1) Preparation of a buffer: 50 mM HEPES, 10 mM MgCl2, 1 mM EGTA, 0.01% NP-40, 2 mM DTT.
(§5) 2) Preparation of control substance and test samples: RXDX-106 and the compounds disclosed herein were each dissolved in DMSO to 10 mM and then diluted to 1 mM or an appropriate concentration with DMSO, and then serial double dilution was performed using BRAVO (Agilent). 100 nL of each was transferred from a compound plate (Labcyte-LP0200) to an assay plate (Greiner-784075) using ECHO 555 (Labcyte). The final concentration of DMSO was 1%.
(§6) 3) Mer and Tyro3 were each diluted to 0.5 nM and 1.2 nM with the detection buffer (Cisbio, Cat. No. 62TK0PEC, Lot. No. 12A). 5 μL of each was added to a 384-well plate and incubated with the compounds disclosed herein for 30 min at 22-25° C. Final concentrations of Mer and Tyro3 were 0.25 nM and 0.6 nM, respectively.
(§7) 4) Biotin-TK substrate and ATP were each diluted to a concentration twice the final concentration with 1× kinase buffer made up of HEPES, NaN3, BSA and orthovanadate. 5 μL of the mixture of substrate and ATP was added to the 384-well plate to initiate the reaction, which lasts for 1 h at 22-25° C.
(§8) 5) Streptavidin-XL665 and TK antibody-cryptate were diluted to 250 nM and 0.5 nM, respectively, with the detection buffer. […] of each of the two solutions was added to the 384-well plate to initiate the reaction, which lasts for 1 h at 22-25° C. The final concentrations of streptavidin-XL665 and TK antibody-cryptate were 125 nM and 0.25 nM, respectively.
(§9) 6) The fluorescence intensities at 665 nm and 615 nm were read with an Envision Reader (PerkinElmer) .
(§10) 7) IC50 values of the compounds were fitted with XL-fit software.

[3] = molecular target: T3, kinase c-MET (Homo sapiens, UniProt P08581); test: Mobility shift assay, inhibitory activity against kinase c-MET; format: biochemical; settings: ATP at Km (35 μM), average of two independent experiments
T3 construct: purchased Carna 08-151
Method: (§11) In this test, mobility shift assay was used to test the inhibitory activity of compounds when ATP concentrations correspond to the Km of the kinases.
(§12) The concentration of test compound was 10-fold diluted from an initial concentration of 10 μM. The test result (IC50) was the average of two independent experiments.
(§13) For example, a compound at an initial concentration of 10 μM was adjusted to 500 μM with 100% DMSO, then serially diluted for 10 concentrations, and then subjected to 10-fold dilution with the buffer to prepare a diluted compound intermediate containing 10% DMSO, 5 μL of which was transferred to the 384-well plate.
(§14) 10 μL of the two enzyme solutions each was added to the 384-well plate and co-incubated with the compound for 10-15 min at room temperature.
(§15) 10 μL of the diluted substrate was added to the 384-well plate to initiate the reaction, which lasts for 1 h at 28° C.
(§16) 5) The conversion rate was read by Caliper Reader (Perkin Elmer) and the inhibition rate was calculated as the average of two tests.
(§17) 6) IC50 values were fitted with XL-fit software.

[4] = molecular target: T4, kinase Axl (Homo sapiens, UniProt P30530); test: Mobility shift assay, inhibitory activity against kinase Axl; format: biochemical; settings: ATP at Km (81 μM), average of two independent experiments
T4 construct: purchased Carna 08-107
T4 sequence (P30530 473-894 limits assumed): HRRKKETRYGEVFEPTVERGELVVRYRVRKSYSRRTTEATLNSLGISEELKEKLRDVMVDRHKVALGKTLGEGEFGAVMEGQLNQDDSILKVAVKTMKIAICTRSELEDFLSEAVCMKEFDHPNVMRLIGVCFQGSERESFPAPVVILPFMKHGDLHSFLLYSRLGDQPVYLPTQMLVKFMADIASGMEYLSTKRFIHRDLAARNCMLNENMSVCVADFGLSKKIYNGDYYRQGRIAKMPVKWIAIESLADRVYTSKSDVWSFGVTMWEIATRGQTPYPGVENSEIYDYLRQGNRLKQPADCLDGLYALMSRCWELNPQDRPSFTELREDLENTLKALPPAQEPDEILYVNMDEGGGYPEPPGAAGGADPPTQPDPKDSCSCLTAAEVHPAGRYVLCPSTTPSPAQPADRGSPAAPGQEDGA
Method: as §11, §12, §13, §14, §15, §16, §17

[5] = molecular target: T5, tyrosine kinase Mer (Homo sapiens, UniProt Q12866); test: HTRF assay, inhibitory activity against tyrosine kinase Mer; format: biochemical; settings: ATP at Km (30 μM), two duplicate wells
T5 construct: purchased Carna 08-108
T5 sequence (Q12866 528-999 limits assumed): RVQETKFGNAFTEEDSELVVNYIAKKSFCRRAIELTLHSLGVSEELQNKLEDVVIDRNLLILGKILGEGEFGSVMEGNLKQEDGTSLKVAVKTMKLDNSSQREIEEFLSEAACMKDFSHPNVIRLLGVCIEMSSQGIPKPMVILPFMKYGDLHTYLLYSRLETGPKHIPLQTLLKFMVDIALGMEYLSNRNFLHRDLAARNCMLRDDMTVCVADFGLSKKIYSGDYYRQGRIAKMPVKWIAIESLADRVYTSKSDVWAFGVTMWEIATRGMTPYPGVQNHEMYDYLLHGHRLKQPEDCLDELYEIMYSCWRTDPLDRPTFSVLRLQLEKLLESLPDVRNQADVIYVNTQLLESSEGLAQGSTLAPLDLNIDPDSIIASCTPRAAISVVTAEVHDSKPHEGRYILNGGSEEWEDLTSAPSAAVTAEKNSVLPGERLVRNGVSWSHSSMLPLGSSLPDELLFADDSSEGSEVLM
Method: as §1, §2, §3, §4, §5, §6, §7, §8, §9, §10

T3 sequence (P08581 956-1390 limits assumed): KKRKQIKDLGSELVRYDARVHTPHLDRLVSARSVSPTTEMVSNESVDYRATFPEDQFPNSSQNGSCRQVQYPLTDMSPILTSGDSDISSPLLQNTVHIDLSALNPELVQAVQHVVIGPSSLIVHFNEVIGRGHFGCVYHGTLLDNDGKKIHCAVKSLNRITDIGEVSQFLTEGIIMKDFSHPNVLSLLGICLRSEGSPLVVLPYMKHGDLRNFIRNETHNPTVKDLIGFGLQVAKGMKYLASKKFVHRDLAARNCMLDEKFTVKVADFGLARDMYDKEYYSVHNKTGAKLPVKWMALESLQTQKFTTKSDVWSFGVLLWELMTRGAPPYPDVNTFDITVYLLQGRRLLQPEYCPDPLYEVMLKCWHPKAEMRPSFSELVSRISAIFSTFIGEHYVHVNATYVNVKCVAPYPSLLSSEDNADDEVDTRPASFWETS

How did the GI50 [1] turn out when `Nc1nc(Nc2ccc3c(c2)CC[C@@H](N2CCCC2)CC3)nn1-c1cc2c(nn1)-c1ccccc1CCC2` [Bemcentinib, bemcentinib, reference compound] was run?
The GI50 was 26.9 nM.

Which results are given for `CCn1cc(-c2cnc(N)c(-c3ccc(NC(=O)c4cn(C5CCC5)c(C#N)c(-c5ccc(F)cc5)c4=O)cc3F)c2)cn1` [Example 9, N-(4-(2-amino-5-(1-ethyl-1H-pyrazol-4-yl)pyridin-3-yl)-3-fluoro-phenyl)-6-cyano-5-(4-fluorophenyl)-1-cyclobutyl-4-oxo-1,4-dihydropyridine-3-carboxamide]?
IC50 [2]: 3 nM; IC50 [3]: 70 nM; IC50 [4]: 4.6 nM; IC50 [5]: 1.3 nM

From US20210355107A1, “MULTI-SUBSTITUTED PYRIDONE DERIVATIVES AND MEDICAL USE THEREOF” (Beijing Yuezhikangtai Biomedicines Co., Ltd., priority 2018, published 2021)
